Measured values published in publication PMC9030254, “Target Hopping from Protein Kinases to PXR: Identification of Small-Molecule Protein Kinase Inhibitors as Selective Modulators of Pregnane X Receptor from TüKIC Library” (Cells, 2022).

Assays:
Assay in all cases: Kinase profiling
Type in all cases: biochemical
INSR = molecular target: T1, INSR (Homo sapiens, UniProt P06213)
T1 construct: purchased ProQinase (Freiburg, Germany)
Protocol: (§1) The analysis was performed by ProQinase (Freiburg, Germany).

CDK9/CycK = molecular target: T2, CDK9/CycK (Homo sapiens, UniProt P50750)
T2 construct: purchased ProQinase (Freiburg, Germany)
Protocol: as §1

GRK3 = molecular target: T3, GRK3 (Homo sapiens, UniProt P35626)
T3 construct: purchased ProQinase (Freiburg, Germany)
T3 sequence (P35626 1-688): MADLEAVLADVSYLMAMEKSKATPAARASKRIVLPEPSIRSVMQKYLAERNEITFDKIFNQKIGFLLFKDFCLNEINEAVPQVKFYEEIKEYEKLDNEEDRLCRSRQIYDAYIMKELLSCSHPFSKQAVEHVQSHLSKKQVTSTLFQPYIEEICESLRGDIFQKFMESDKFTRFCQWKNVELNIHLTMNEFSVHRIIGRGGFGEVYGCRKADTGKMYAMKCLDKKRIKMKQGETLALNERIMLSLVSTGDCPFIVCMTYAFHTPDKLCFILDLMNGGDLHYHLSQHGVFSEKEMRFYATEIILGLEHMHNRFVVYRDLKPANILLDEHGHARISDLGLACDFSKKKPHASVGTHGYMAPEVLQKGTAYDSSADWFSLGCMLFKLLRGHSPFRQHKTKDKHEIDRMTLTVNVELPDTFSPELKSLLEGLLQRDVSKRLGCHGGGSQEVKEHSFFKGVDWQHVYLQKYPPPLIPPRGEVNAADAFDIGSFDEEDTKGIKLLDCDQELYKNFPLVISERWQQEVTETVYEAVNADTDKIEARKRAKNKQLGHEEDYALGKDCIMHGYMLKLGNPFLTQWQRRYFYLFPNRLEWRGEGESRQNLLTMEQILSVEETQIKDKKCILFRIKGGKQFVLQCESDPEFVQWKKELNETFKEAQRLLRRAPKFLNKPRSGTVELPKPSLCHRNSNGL
Protocol: as §1

PYK2 = molecular target: T4, PYK2 (Homo sapiens, UniProt Q14289)
T4 construct: purchased ProQinase (Freiburg, Germany)
Protocol: as §1

NEK4 = molecular target: T5, NEK4 (Homo sapiens, UniProt P51957)
T5 construct: purchased ProQinase (Freiburg, Germany)
Protocol: as §1

PKCnu = molecular target: T6, PKCnu (Homo sapiens, UniProt O94806)
T6 construct: purchased ProQinase (Freiburg, Germany)
T6 sequence (O94806 1-890): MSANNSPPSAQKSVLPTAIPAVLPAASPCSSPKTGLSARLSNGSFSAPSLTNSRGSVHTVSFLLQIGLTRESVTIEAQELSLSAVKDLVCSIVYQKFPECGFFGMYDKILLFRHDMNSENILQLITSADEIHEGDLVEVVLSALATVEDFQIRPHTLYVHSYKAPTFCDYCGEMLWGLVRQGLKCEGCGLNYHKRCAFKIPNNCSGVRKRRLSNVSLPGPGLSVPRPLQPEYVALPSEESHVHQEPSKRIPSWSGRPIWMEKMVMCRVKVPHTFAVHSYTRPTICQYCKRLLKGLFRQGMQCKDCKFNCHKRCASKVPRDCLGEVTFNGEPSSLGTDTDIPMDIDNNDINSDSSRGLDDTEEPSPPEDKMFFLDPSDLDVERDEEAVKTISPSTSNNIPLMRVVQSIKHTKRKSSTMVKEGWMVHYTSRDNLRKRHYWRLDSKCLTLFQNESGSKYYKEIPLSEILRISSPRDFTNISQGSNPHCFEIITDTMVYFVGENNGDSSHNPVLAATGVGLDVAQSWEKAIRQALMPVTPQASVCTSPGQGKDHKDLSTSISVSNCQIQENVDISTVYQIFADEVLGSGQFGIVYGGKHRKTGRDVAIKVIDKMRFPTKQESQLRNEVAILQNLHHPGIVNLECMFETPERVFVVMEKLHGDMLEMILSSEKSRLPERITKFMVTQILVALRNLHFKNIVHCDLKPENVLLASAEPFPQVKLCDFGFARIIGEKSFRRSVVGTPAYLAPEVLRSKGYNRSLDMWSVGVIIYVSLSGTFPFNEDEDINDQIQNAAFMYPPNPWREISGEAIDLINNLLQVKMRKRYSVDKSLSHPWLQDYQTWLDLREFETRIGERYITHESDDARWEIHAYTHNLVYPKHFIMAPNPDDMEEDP
Protocol: as §1

VEGFR2 = molecular target: T7, VEGFR2 (Homo sapiens, UniProt P35968)
T7 construct: purchased ProQinase (Freiburg, Germany)
Protocol: as §1

CAMK2B = molecular target: T8, CAMK2B (Homo sapiens, UniProt Q13554)
T8 construct: purchased ProQinase (Freiburg, Germany)
Protocol: as §1

CK1epsilon = molecular target: T9, CK1epsilon (Homo sapiens, UniProt P49674)
T9 construct: purchased ProQinase (Freiburg, Germany)
Protocol: as §1

AuroraA = molecular target: T10, AuroraA (Homo sapiens, UniProt O14965)
T10 construct: purchased ProQinase (Freiburg, Germany)
T10 sequence (O14965 1-403): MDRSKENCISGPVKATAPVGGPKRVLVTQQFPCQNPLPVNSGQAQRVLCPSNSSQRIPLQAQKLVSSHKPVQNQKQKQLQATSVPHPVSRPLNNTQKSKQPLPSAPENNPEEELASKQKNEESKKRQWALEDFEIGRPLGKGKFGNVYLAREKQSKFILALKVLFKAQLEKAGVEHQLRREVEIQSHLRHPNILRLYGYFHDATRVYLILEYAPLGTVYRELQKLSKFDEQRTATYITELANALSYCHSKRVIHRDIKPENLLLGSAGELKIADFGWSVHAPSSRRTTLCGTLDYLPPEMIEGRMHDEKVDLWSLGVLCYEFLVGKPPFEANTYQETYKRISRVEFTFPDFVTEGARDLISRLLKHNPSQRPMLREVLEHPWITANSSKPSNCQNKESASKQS
Protocol: as §1

HIPK1 = molecular target: T11, HIPK1 (Homo sapiens, UniProt Q86Z02)
T11 construct: purchased ProQinase (Freiburg, Germany)
Protocol: as §1

KIT = molecular target: T12, KIT (Homo sapiens, UniProt P10721)
T12 construct: purchased ProQinase (Freiburg, Germany)
Protocol: as §1

ALK = molecular target: T13, ALK (Homo sapiens, UniProt Q9UM73)
T13 construct: purchased ProQinase (Freiburg, Germany)
Protocol: as §1

WEE1 = molecular target: T14, WEE1 (Homo sapiens, UniProt P30291)
T14 construct: purchased ProQinase (Freiburg, Germany)
Protocol: as §1

T1 sequence (P06213 28-1382): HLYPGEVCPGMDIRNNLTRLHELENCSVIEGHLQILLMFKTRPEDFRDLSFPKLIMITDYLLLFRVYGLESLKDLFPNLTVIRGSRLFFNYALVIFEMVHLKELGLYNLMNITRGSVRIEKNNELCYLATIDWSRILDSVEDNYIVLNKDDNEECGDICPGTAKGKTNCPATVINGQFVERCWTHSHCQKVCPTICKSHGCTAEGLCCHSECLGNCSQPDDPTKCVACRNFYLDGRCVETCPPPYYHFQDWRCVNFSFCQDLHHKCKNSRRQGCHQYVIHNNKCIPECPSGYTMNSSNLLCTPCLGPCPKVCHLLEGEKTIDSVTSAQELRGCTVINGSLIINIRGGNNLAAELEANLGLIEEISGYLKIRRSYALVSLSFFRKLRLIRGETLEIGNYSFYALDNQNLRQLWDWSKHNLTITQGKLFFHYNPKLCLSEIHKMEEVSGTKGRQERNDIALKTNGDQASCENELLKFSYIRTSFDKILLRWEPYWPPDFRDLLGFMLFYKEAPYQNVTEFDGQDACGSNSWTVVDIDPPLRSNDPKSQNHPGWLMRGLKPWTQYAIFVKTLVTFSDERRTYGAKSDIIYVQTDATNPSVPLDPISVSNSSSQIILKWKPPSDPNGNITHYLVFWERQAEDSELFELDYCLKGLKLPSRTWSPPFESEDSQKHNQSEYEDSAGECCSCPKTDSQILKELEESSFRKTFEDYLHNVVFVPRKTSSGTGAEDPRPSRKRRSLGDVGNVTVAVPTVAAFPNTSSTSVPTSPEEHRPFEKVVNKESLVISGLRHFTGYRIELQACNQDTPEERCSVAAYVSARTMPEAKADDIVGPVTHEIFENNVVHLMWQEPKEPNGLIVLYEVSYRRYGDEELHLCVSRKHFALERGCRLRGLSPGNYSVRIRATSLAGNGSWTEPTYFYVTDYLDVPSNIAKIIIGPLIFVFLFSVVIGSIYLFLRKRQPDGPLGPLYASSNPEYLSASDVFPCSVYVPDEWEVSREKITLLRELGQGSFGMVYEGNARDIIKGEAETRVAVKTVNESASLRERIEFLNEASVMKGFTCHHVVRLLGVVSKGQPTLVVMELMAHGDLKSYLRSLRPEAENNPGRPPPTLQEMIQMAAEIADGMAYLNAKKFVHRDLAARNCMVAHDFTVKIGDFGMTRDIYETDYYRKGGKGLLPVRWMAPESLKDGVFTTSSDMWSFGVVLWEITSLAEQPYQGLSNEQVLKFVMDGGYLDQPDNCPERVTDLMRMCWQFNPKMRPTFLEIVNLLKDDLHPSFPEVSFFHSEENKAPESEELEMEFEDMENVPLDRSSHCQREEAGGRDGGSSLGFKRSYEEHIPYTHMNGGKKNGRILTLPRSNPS
T12 sequence (P10721 26-976): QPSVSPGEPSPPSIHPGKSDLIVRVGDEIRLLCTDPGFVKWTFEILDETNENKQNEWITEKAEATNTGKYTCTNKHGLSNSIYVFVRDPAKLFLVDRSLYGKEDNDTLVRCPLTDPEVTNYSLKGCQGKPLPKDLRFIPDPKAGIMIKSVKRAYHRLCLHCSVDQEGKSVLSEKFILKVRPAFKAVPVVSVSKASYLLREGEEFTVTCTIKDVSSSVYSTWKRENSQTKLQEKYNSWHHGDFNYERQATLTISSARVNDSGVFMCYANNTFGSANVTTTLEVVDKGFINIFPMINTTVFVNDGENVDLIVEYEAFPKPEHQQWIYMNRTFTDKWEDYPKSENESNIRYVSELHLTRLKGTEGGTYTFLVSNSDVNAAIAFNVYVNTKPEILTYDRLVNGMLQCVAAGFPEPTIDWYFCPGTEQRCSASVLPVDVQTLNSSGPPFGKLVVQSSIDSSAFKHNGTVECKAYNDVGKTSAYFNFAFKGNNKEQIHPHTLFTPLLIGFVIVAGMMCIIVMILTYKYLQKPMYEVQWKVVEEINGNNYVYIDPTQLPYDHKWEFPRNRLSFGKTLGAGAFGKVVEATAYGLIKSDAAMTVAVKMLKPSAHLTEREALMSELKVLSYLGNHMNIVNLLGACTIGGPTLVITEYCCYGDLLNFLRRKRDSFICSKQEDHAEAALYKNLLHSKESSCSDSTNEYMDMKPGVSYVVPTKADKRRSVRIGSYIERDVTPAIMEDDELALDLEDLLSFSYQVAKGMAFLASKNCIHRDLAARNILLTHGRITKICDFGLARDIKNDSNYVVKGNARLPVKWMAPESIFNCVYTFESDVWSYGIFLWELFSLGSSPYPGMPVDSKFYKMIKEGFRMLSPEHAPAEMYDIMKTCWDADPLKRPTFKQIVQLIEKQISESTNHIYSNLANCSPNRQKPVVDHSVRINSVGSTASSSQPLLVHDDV
T4 sequence (Q14289 whole entry): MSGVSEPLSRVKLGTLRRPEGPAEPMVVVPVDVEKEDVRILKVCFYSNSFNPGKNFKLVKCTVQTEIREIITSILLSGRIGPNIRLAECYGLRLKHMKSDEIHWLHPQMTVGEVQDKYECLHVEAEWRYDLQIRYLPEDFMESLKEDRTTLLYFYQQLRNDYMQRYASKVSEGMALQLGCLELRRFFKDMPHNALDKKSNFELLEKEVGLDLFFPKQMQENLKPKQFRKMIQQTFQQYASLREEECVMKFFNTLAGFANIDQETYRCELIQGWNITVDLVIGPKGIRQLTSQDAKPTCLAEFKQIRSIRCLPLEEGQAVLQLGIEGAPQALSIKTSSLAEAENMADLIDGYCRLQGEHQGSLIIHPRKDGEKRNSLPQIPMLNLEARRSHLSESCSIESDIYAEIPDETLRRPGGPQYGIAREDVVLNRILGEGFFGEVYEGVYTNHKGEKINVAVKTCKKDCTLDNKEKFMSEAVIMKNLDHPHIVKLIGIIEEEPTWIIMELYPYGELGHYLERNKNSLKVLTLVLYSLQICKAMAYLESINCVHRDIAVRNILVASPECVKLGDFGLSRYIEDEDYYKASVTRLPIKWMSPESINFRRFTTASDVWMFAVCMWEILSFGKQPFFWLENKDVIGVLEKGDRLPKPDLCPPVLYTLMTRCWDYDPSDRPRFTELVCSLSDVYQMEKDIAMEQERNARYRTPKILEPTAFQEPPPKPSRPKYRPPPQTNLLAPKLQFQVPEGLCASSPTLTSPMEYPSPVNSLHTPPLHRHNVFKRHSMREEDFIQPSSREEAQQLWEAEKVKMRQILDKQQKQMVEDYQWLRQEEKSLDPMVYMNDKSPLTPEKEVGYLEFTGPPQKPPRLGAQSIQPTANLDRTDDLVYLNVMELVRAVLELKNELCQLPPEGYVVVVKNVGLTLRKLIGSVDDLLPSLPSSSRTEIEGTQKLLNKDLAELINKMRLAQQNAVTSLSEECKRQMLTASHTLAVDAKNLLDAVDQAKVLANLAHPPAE
T11 sequence (Q86Z02 whole entry): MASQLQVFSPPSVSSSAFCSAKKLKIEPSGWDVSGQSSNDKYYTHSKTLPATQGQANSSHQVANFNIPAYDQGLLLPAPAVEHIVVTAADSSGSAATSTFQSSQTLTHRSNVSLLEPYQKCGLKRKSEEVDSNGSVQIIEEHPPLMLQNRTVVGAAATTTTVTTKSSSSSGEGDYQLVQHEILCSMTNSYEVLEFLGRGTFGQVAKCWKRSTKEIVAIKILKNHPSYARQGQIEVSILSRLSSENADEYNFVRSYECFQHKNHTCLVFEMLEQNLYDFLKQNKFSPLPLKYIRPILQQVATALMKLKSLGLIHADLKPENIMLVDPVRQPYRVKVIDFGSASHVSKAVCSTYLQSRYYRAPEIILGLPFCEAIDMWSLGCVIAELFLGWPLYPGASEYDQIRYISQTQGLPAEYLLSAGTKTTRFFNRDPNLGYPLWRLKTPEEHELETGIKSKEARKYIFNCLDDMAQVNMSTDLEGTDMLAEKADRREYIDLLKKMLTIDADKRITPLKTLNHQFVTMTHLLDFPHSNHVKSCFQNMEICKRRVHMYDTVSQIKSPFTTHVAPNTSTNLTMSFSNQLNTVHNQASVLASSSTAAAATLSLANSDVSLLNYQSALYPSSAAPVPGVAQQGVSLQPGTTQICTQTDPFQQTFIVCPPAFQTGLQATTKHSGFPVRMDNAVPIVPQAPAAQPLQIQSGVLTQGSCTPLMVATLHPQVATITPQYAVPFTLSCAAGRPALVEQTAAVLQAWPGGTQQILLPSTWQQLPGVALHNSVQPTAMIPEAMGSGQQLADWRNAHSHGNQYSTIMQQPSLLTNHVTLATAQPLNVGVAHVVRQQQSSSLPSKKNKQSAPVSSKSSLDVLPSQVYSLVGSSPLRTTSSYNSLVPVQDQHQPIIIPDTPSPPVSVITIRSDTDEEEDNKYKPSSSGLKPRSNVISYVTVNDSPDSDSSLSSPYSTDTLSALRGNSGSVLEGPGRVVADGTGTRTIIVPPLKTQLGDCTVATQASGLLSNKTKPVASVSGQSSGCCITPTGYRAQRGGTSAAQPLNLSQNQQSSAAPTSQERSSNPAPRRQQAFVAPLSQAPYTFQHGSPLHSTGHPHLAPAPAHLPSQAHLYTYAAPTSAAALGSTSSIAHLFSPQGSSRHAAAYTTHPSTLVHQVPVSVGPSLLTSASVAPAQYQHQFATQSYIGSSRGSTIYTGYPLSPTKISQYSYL
T9 sequence (P49674 whole entry): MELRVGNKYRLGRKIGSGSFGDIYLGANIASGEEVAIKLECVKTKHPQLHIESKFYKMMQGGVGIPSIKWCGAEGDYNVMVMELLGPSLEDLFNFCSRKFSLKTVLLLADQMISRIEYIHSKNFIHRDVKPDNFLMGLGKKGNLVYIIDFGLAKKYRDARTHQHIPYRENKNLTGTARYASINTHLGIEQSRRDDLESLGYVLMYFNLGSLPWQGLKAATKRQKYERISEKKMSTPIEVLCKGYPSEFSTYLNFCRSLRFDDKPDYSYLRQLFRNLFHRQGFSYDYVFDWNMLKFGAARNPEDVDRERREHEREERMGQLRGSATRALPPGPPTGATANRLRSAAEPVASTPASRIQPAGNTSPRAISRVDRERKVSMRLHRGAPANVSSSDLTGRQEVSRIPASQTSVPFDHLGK

## O=C(Cc1ccccc1)Nc1ccc(F)c(Nc2ccc3c(c2)CCCCC3=O)c1 [Compound 100]
INSR; 1.0E-05 M
  Residual activity: 92 % of control
INSR; 1.0E-06 M
  Residual activity: 95 % of control
CDK9/CycK; 1.0E-05 M
  Residual activity: 89 % of control
CDK9/CycK; 1.0E-06 M
  Residual activity: 91 % of control
GRK3; 1.0E-05 M
  Residual activity: 144 % of control
GRK3; 1.0E-06 M
  Residual activity: 118 % of control
PYK2; 1.0E-05 M
  Residual activity: 79 % of control
PYK2; 1.0E-06 M
  Residual activity: 108 % of control
NEK4; 1.0E-05 M
  Residual activity: 81 % of control
NEK4; 1.0E-06 M
  Residual activity: 102 % of control
PKCnu; 1.0E-05 M
  Residual activity: 65 % of control
PKCnu; 1.0E-06 M
  Residual activity: 88 % of control
VEGFR2; 1.0E-05 M
  Residual activity: 77 % of control
VEGFR2; 1.0E-06 M
  Residual activity: 98 % of control
CAMK2B; 1.0E-05 M
  Residual activity: 115 % of control
CAMK2B; 1.0E-06 M
  Residual activity: 144 % of control
CK1epsilon; 1.0E-05 M
  Residual activity: 117 % of control
CK1epsilon; 1.0E-06 M
  Residual activity: 107 % of control
AuroraA; 1.0E-05 M
  Residual activity: 91 % of control
AuroraA; 1.0E-06 M
  Residual activity: 96 % of control
HIPK1; 1.0E-05 M
  Residual activity: 91 % of control
HIPK1; 1.0E-06 M
  Residual activity: 100 % of control
KIT; 1.0E-05 M
  Residual activity: 78 % of control
KIT; 1.0E-06 M
  Residual activity: 87 % of control
ALK; 1.0E-05 M
  Residual activity: 72 % of control
ALK; 1.0E-06 M
  Residual activity: 86 % of control
WEE1; 1.0E-05 M
  Residual activity: 100 % of control
WEE1; 1.0E-06 M
  Residual activity: 103 % of control

## O=C(Nc1ccc(F)c(Nc2ccc3c(c2)CCCCC3=O)c1)c1cccc(F)c1 [Compound 109]
INSR; 1.0E-05 M
  Residual activity: 84 % of control
INSR; 1.0E-06 M
  Residual activity: 95 % of control
CDK9/CycK; 1.0E-05 M
  Residual activity: 95 % of control
CDK9/CycK; 1.0E-06 M
  Residual activity: 90 % of control
GRK3; 1.0E-05 M
  Residual activity: 138 % of control
GRK3; 1.0E-06 M
  Residual activity: 122 % of control
PYK2; 1.0E-05 M
  Residual activity: 80 % of control
PYK2; 1.0E-06 M
  Residual activity: 87 % of control
NEK4; 1.0E-05 M
  Residual activity: 94 % of control
NEK4; 1.0E-06 M
  Residual activity: 98 % of control
PKCnu; 1.0E-05 M
  Residual activity: 69 % of control
PKCnu; 1.0E-06 M
  Residual activity: 88 % of control
VEGFR2; 1.0E-05 M
  Residual activity: 79 % of control
VEGFR2; 1.0E-06 M
  Residual activity: 84 % of control
CAMK2B; 1.0E-05 M
  Residual activity: 104 % of control
CAMK2B; 1.0E-06 M
  Residual activity: 132 % of control
CK1epsilon; 10 µM, read-out: inhibition of CK1-ε
  inhibition at 10 µM: ≥ 50%
CK1epsilon; 1.0E-05 M
  Residual activity: 15 % of control
CK1epsilon; 1.0E-06 M
  Residual activity: 52 % of control
AuroraA; 1.0E-05 M
  Residual activity: 90 % of control
AuroraA; 1.0E-06 M
  Residual activity: 93 % of control
HIPK1; 1.0E-05 M
  Residual activity: 93 % of control
HIPK1; 1.0E-06 M
  Residual activity: 90 % of control
KIT; 1.0E-05 M
  Residual activity: 78 % of control
KIT; 1.0E-06 M
  Residual activity: 88 % of control
ALK; 1.0E-05 M
  Residual activity: 92 % of control
ALK; 1.0E-06 M
  Residual activity: 95 % of control
WEE1; 1.0E-05 M
  Residual activity: 95 % of control
WEE1; 1.0E-06 M
  Residual activity: 100 % of control
